Common to all, as to format: biochemical
One experiment deals with GST-PLK1 (Homo sapiens, UniProt P53350). Description: PLK TR-FRET peptide assay, PLK1. To be noted: read-out: Plk1 IC50. Background: In TR-FRET formats the signal depends on donor and acceptor labels being close together.
In the next experiment the target is T1, GST-PLK2 (Homo sapiens, UniProt Q9NYY3).
T1 construct: purchased CarnaBio
Description: PLK TR-FRET peptide assay, PLK2. To be noted: read-out: Plk2 IC50.

The target in a further experiment is T2, GST-PLK3 (Homo sapiens, UniProt Q9H4B4).
T2 construct: purchased CarnaBio
T2 sequence (Q9H4B4 whole entry): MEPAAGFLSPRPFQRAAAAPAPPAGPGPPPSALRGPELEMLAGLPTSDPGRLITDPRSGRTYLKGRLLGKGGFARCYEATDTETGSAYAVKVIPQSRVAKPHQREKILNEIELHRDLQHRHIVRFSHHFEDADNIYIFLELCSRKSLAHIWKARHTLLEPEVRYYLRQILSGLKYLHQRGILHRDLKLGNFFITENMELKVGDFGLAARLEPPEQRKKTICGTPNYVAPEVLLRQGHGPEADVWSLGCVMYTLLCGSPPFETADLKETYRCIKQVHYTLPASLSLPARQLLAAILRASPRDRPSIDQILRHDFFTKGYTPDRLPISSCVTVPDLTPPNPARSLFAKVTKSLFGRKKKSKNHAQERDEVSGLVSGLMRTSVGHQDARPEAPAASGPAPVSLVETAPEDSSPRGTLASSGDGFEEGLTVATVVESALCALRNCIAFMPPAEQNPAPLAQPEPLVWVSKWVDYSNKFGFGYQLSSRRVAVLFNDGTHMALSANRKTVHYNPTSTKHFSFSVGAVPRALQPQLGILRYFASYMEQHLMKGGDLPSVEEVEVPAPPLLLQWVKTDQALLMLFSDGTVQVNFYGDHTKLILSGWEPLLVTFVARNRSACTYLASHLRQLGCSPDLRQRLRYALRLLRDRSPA
As to the kind of experiment: PLK TR-FRET peptide assay, PLK3.

Setting [1] is: PLK TR-FRET peptide assay, GST-PLK2.
[2] abbreviates: PLK TR-FRET peptide assay, GST-PLK3; read-out: Plk3 IC50.

This is an account of results in patent US8445503B2, “Inhibitors of polo-like kinase” (Elan Pharmaceuticals, Inc., priority 2009, dated 2013).

Where two headings read alike, the source gives them in different places.

As a reminder, the IC50 is the concentration that gives 50% inhibition.

Chain of GST-PLK1 (P53350 whole entry): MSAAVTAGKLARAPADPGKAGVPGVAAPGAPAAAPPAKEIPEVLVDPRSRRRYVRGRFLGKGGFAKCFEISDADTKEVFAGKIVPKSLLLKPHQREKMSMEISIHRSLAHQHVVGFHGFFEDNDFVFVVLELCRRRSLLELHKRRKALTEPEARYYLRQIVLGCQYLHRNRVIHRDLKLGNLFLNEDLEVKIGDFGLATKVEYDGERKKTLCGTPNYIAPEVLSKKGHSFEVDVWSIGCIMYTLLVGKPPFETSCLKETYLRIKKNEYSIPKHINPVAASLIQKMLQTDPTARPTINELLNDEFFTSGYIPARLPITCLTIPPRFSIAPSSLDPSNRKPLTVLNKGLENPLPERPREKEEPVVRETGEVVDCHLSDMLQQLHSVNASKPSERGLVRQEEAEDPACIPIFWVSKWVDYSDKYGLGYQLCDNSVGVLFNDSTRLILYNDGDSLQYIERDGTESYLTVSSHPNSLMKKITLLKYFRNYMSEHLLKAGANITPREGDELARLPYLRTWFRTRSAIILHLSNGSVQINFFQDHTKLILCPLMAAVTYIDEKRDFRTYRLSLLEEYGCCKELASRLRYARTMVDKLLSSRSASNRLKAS
T1 sequence (Q9NYY3 whole entry): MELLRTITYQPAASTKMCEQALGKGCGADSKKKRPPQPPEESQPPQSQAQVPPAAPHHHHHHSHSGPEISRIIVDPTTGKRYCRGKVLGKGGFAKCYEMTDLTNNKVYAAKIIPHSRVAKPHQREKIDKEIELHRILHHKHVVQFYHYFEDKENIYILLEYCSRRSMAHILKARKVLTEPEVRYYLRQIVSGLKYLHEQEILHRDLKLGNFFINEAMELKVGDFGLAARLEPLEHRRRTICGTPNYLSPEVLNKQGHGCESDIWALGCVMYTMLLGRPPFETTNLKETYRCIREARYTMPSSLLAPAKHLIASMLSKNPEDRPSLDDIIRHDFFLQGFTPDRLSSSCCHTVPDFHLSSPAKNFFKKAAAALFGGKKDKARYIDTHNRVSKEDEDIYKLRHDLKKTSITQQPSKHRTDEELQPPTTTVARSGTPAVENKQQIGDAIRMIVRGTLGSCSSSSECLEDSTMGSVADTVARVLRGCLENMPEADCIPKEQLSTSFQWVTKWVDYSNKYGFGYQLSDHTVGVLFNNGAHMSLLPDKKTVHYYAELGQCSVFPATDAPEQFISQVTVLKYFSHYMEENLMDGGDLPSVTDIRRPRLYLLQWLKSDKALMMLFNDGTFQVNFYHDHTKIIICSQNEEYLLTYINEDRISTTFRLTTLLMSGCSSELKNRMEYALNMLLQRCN

In the case of `CC[C@@H]1C(=O)N(C)c2cnc(-n3ncnc3-c3ccccc3)nc2N1C1CCCC1` [Example 135, (R)-8-cyclopentyl-7-ethyl-5-methyl-2-(5-phenyl-1H-1,2,4-triazol-1-yl)-7,8-dihydropteridin-6(5H)-one], the concentration for half-maximal inhibition (IC50) on GST-PLK1, on GST-PLK2 (setting [1]) and at GST-PLK3 (setting [2]) was under 1 µM each time.
As to `CC[C@@]12CCCN1c1nc(-n3ccnc3-c3cccnc3)ncc1N(C)C2=O` [Example 137, (S)-6a-ethyl-5-methyl-2-(2-(pyridin-3-yl)-1H-imidazol-1-yl)-6a,7,8,9-tetrahydropyrrolo[2,1-h]pteridin-6(5H)-one], the values for the IC50 at GST-PLK1, on GST-PLK2 (setting [1]) and at GST-PLK3 (setting [2]) were over 50 µM, 1 to 10 µM and over 50 µM, respectively.
Consider `CC[C@@H]1C(=O)N(C)c2cnc(-c3nccnc3-c3ccccc3)nc2N1C1CCCC1` [Example 138, (R)-8-cyclopentyl-7-ethyl-5-methyl-2-(3-phenylpyrazin-2-yl)-7,8-dihydropteridin-6(5H)-one], for which the 50% inhibitory concentration (IC50) on GST-PLK1 is under 1 µM; on GST-PLK2 it was under 1 µM; on GST-PLK3 (read-out: Plk3 IC50; PLK TR-FRET peptide assay, GST-PLK3) it was under 1 µM.
In the case of `CC[C@@H]1C(=O)N(C)c2cnc(-c3cnncc3-c3ccccc3)nc2N1C1CCCC1` [Example 139, (R)-8-cyclopentyl-7-ethyl-5-methyl-2-(5-phenylpyridazin-4-yl)-7,8-dihydropteridin-6(5H)-one], the half-inhibitory concentration (IC50) at GST-PLK1, on GST-PLK2 (setting [1]) and on GST-PLK3 (setting [2]) was under 1 µM throughout.
As to `CC[C@@H]1C(=O)N(C)c2cnc(-n3ccnc3-c3cnccn3)nc2N1C1CCOCC1` [Example 140, (R)-7-ethyl-5-methyl-2-(2-(pyrazin-2-yl)-1H-imidazol-1-yl)-8-(tetrahydro-2H-pyran-4-yl)-7,8-dihydropteridin-6(5H)-one], the IC50 on GST-PLK1 was 1 to 10 µM; at GST-PLK2 (setting [1]), under 1 µM; at GST-PLK3 (setting [2]), over 50 µM.
In the case of `CC[C@@]12CCCN1c1nc(-n3ccnc3-c3cnccn3)ncc1N(C)C2=O` [Example 144, (S)-6a-ethyl-5-methyl-2-(2-(pyrazin-2-yl)-1H-imidazol-1-yl)-6a,7,8,9-tetrahydropyrrolo[2,1-h]pteridin-6(5H)-one], the 50% inhibitory concentration (IC50) at GST-PLK1 was over 50 µM; at GST-PLK2 (setting [1]), 1 to 10 µM; at GST-PLK3 (setting [2]) it was over 50 µM.
Turning to `CC[C@@]12CCCN1c1nc(-n3ccnc3-c3ccccn3)ncc1N(C)C2=O` [Example 145, (S)-6a-ethyl-5-methyl-2-(2-(pyridin-2-yl)-1H-imidazol-1-yl)-6a,7,8,9-tetrahydropyrrolo[2,1-h]pteridin-6(5H)-one], the IC50 lay in the range of 10 to 50 µM on GST-PLK1, 1 to 10 µM on GST-PLK2 (setting [1]) and 10 to 50 µM on GST-PLK3 (setting [2]).
As for `CC[C@@H]1C(=O)N(C)c2cnc(-n3ccnc3-c3ccncc3)nc2N1C1CC1` [Example 147, (R)-8-cyclopropyl-7-ethyl-5-methyl-2-(2-(pyridin-4-yl)-1H-imidazol-1-yl)-7,8-dihydropteridin-6(5H)-one], the 50% inhibitory concentration (IC50) at GST-PLK1 is over 50 µM; on GST-PLK2 (setting [1]) it was 1 to 10 µM; on GST-PLK3 (setting [2]), over 50 µM.
As to `CC[C@@H]1C(=O)N(C)c2cnc(-n3ccnc3-c3ncccn3)nc2N1C(C)C` [Example 148, (R)-7-ethyl-8-isopropyl-5-methyl-2-(2-(pyrimidin-2-yl)-1H-imidazol-1-yl)-7,8-dihydropteridin-6(5H)-one], the 50% inhibitory concentration (IC50) is 1 to 10 µM on GST-PLK1, under 1 µM on GST-PLK2 (setting [1]) and 10 to 50 µM at GST-PLK3 (setting [2]).
The like results for `CC[C@@H]1C(=O)N(C)c2cnc(-n3ccnc3-c3cncnc3)nc2N1C(C)C` [Example 149, (R)-7-ethyl-8-isopropyl-5-methyl-2-(2-(pyrimidin-5-yl)-1H-imidazol-1-yl)-7,8-dihydropteridin-6(5H)-one] were, in that order, 10 to 50 µM, under 1 µM and 10 to 50 µM.
`CC[C@@H]1C(=O)N(C)c2cnc(-n3ccnc3-c3cccnn3)nc2N1C(C)C` [Example 152, (R)-7-ethyl-8-isopropyl-5-methyl-2-(2-(pyridazin-3-yl)-1H-imidazol-1-yl)-7,8-dihydropteridin-6(5H)-one]: the IC50 was 10 to 50 µM at GST-PLK1, under 1 µM at GST-PLK2 (setting [1]) and over 50 µM on GST-PLK3 (setting [2]).
The like results for `CC[C@@H]1C(=O)N(C)c2cnc(-n3ccnc3-c3ccccn3)nc2N1C(C)C` [Example 153, (R)-7-ethyl-8-isopropyl-5-methyl-2-(2-(pyridin-2-yl)-1H-imidazol-1-yl)-7,8-dihydropteridin-6(5H)-one] were, in that order, 1 to 10 µM, under 1 µM and 1 to 10 µM.
As to `CC[C@@H]1C(=O)N(C)c2cnc(-n3ccnc3-c3cccnc3)nc2N1C(C)C` [Example 154, (R)-7-ethyl-8-isopropyl-5-methyl-2-(2-(pyridin-3-yl)-1H-imidazol-1-yl)-7,8-dihydropteridin-6(5H)-one], the IC50 at GST-PLK1 is 1 to 10 µM; on GST-PLK2 (setting [1]) it was under 1 µM; at GST-PLK3 (setting [2]) it was 10 to 50 µM.
The like results for `CC[C@@H]1C(=O)N(C)c2cnc(-n3ccnc3-c3nccs3)nc2N1C1CCOCC1` [Example 157, (R)-7-ethyl-5-methyl-8-(tetrahydro-2H-pyran-4-yl)-2-(2-(thiazol-2-yl)-1H-imidazol-1-yl)-7,8-dihydropteridin-6(5H)-one] were, in that order, 1 to 10 µM, under 1 µM and 10 to 50 µM.
As to `CC[C@@H]1C(=O)N(C)c2cnc(-n3ccnc3-c3cncnc3)nc2N1C1CCCC1` [Example 159, (R)-8-cyclopentyl-7-ethyl-5-methyl-2-(2-(pyrimidin-5-yl)-1H-imidazol-1-yl)-7,8-dihydropteridin-6(5H)-one], the half-inhibitory concentration (IC50) at GST-PLK1 was under 1 µM; at GST-PLK2 (setting [1]), under 1 µM; on GST-PLK3 (setting [2]), 1 to 10 µM.
For `CC[C@@H]1C(=O)N(C)c2cnc(-n3ccnc3-c3cncnc3)nc2N1C1CCC1` [Example 176, (R)-8-cyclobutyl-7-ethyl-5-methyl-2-(2-(pyrimidin-5-yl)-1H-imidazol-1-yl)-7,8-dihydropteridin-6(5H)-one], the IC50 is 1 to 10 µM at GST-PLK1, under 1 µM on GST-PLK2 (setting [1]) and over 50 µM on GST-PLK3 (setting [2]).
The like results for `CC[C@@H]1C(=O)N(C)c2cnc(-n3ccnc3-c3ncccn3)nc2N1C1CCC1` [Example 183, (R)-8-cyclobutyl-7-ethyl-5-methyl-2-(2-(pyrimidin-2-yl)-1H-imidazol-1-yl)-7,8-dihydropteridin-6(5H)-one] were, in that order, 1 to 10 µM, under 1 µM and 10 to 50 µM.
On to `CC[C@@H]1C(=O)N(C)c2cnc(-n3nccc3-c3ccccc3)nc2N1C(C)C` [Example 188, (R)-7-ethyl-8-isopropyl-5-methyl-2-(5-phenyl-1H-pyrazol-1-yl)-7,8-dihydropteridin-6(5H)-one], for which the IC50 is under 1 µM on GST-PLK1, under 1 µM at GST-PLK2 (setting [1]) and 1 to 10 µM at GST-PLK3 (setting [2]).
For the compound `CC[C@@]12CCCN1c1nc(-n3ncnc3-c3ccccc3)ncc1N(C)C2=O` [Example 189, (S)-6a-ethyl-5-methyl-2-(5-phenyl-1H-1,2,4-triazol-1-yl)-6a,7,8,9-tetrahydropyrrolo[2,1-h]pteridin-6(5H)-one], the 50% inhibitory concentration (IC50) at GST-PLK1 is 1 to 10 µM; on GST-PLK2 (setting [1]) it was under 1 µM; on GST-PLK3 (setting [2]), 1 to 10 µM.
Consider `CC[C@@H]1C(=O)N(C)c2cnc(-n3ncnc3-c3ccccc3)nc2N1C(C)C` [Example 195, (R)-7-ethyl-8-isopropyl-5-methyl-2-(5-phenyl-1H-1,2,4-triazol-1-yl)-7,8-dihydropteridin-6(5H)-one], for which the IC50 at GST-PLK1, on GST-PLK2 (setting [1]) and at GST-PLK3 (setting [2]) was under 1 µM in each case.
